Patent US20110152313A1 (MACQUARIE UNIVERSITY, priority 2008, published 2011)

How the values were obtained:
Assay in all cases: kinase binding screen (kinase-tagged T7 phage, qPCR), % Ctrl
[1] = target: CAMK2D (Homo sapiens, UniProt Q13557)
Procedure, shortened: (§1)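 Steps: grow T7 phage displaying kinase in BL21-derived E. coli; clarify lysate; combine with ligand-liganded, blocked beads and compound (single concentration, diluted from 40× DMSO stock); elute; quantify kinase by qPCR.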

[2] = target: T1, DRAK1 (Homo sapiens, UniProt Q9UEE5)
T1 sequence (Q9UEE5 1-414): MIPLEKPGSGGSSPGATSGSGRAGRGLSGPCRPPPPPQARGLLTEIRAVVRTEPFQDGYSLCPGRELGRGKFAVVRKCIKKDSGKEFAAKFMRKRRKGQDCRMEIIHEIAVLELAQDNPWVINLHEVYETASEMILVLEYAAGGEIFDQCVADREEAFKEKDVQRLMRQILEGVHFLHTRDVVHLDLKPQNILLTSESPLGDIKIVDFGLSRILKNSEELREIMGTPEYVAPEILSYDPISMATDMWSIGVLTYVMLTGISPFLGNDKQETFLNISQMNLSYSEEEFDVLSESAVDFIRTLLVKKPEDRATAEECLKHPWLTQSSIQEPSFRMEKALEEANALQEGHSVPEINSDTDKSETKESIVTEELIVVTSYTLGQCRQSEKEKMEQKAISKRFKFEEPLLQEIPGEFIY
Procedure, shortened: as §1

[3] = target: T2, ZAP70 (Homo sapiens, UniProt P43403)
T2 sequence (P43403 1-619): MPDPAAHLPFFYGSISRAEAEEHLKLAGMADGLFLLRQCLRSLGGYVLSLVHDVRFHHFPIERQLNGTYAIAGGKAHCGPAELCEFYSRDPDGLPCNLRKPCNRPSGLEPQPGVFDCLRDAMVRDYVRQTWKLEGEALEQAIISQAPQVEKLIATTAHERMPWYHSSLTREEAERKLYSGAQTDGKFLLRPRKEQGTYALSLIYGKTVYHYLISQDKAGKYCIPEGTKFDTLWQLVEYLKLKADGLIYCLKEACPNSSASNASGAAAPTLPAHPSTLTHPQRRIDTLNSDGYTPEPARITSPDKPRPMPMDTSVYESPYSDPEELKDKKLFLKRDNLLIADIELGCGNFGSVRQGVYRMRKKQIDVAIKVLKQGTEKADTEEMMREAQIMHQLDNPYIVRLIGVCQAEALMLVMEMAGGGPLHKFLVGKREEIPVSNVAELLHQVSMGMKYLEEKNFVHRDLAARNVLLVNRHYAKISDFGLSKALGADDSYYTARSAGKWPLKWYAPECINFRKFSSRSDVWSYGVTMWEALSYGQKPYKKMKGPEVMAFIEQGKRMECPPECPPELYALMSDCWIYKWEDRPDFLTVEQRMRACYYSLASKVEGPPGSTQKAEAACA
Procedure, shortened: as §1

[4] = target: T3, YSK4 (Homo sapiens, UniProt Q56UN5)
T3 sequence (Q56UN5 1-1328): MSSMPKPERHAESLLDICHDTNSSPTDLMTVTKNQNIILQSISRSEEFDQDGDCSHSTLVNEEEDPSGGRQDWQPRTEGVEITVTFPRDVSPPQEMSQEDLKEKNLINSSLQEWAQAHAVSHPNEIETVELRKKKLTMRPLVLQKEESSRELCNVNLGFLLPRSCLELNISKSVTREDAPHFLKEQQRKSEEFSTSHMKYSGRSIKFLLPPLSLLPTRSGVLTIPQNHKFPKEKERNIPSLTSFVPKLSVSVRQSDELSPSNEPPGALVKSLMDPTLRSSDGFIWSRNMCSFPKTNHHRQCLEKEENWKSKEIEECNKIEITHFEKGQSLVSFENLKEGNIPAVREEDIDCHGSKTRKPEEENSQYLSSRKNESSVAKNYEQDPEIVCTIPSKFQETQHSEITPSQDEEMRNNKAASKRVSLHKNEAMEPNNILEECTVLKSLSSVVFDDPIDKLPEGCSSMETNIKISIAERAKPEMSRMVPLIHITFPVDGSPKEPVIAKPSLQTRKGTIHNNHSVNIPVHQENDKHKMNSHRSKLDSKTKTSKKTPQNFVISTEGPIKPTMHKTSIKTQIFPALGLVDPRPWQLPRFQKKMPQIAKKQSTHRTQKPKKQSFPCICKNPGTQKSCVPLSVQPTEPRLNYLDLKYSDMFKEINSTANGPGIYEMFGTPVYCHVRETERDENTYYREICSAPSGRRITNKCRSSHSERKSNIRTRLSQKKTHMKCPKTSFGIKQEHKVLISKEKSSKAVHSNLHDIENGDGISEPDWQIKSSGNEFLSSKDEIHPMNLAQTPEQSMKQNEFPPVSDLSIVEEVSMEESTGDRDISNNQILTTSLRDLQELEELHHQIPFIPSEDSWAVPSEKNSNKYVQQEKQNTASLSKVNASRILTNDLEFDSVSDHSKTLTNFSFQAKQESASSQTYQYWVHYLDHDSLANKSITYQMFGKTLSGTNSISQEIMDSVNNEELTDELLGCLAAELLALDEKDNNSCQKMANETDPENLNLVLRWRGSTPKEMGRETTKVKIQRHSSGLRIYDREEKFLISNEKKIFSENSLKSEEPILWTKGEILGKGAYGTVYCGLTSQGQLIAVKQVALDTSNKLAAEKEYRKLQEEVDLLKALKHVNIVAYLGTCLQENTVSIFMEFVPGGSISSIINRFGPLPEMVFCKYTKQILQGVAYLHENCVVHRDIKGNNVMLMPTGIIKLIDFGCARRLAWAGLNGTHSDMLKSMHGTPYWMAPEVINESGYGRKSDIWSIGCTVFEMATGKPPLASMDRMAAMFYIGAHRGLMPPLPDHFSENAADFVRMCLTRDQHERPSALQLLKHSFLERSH
Procedure, shortened: as §1

CAMK2D, sequence (Q13557 whole entry): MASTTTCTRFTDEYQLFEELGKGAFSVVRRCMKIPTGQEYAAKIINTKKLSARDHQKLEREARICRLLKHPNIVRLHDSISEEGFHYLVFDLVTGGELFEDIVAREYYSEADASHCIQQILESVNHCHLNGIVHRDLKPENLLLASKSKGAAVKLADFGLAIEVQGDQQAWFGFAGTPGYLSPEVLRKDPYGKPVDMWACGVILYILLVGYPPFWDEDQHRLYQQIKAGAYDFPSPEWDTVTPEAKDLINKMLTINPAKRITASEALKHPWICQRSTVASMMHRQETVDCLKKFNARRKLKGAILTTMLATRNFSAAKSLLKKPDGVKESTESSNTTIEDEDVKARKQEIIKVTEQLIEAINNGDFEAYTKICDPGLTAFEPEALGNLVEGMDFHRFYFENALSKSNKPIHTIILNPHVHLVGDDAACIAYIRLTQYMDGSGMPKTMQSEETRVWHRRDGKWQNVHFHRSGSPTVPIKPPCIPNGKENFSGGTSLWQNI

SMILES | remaining activity at 1 µM [1] [%] | remaining activity at 1 µM [2] [%] | remaining activity at 1 µM [3] [%] | remaining activity at 1 µM [4] [%] | remaining activity at 10 µM ([1]; 10 μM) [%] | remaining activity at 10 µM ([2]; 10 μM) [%] | remaining activity at 10 µM ([3]; 10 μM) [%] | remaining activity at 10 µM ([4]; 10 μM) [%]
Nc1nc2c(-c3cnc4ccccc4c3)nccc2[nH]1 [drawing 36, 4-(quinolin-3-yl)-1H-imidazo[4,5-c]pyridin-2-amine] | 100 | 100 | 94 | 82 | – | – | – | –
Nc1nc2c(-c3ccccn3)nccc2[nH]1 [drawing 35, 4-(pyrid-2-yl)-1H-imidazo[4,5-c]pyridin-2-amine] | 41 | 56 | 54 | 16 | – | – | – | –
Nc1nc2c(-c3cc(Br)c(Br)[nH]3)nccc2[nH]1 [Ageladine A, ageladine A, reference compound] | 100 | 78 | 81 | 56 | 82 | 86 | 65 | 5.1
